Data taken from patent publication US20130202733A1, “ISOMALTULOSE FOR USE IN ENHANCING MENTAL PERFORMANCE” (SUEDZUCKER AKTIENGESELLSCHAFT MANNHEIM/OCHSENFURT, priority 2010, published 2013).
“Also recorded” adds a separate entry of the source.

How the values were obtained:
subjects = conditions: at 150 minutes following ingestion; cited from earlier work
[1] = glucose standard = 100; cited from earlier work
healthy school children [2] = test: Attention test (paradigm of Shakow, signal detection, error rate) after isomaltulose or glucose sweetened meal; format: in vivo, human
Method: (§1) Seventy-five healthy school children consumed in crossover design two meals designed to differ in their glycemic load (GL; Amount of carbohydrate×Glycemic Index, GI, of food items; GI of isomaltulose=32, GI of glucose=100) while being similar in macro-nutrient content. The cognitive test block takes 45 minutes and was once assessed in the early postprandial phase and once in the late post-prandial phase (>150 minutes) after meal ingestion. Every child participated in four blocks of testing (FIG. 2). • Early test block after meal A • Late test block after meal A • Early test block after meal B • Late test block after meal B
(§2) On each cognitive test block parallel versions of the cognitive tests were administered.
(§3) Both meals offered a similar intake of energy (1385 KJ) and macro-nutrients (84.4% carbohydrates, 10.6% protein and 5.0% fat) while differing in glycemic load (GL; Amount of carbohydrate×Glycemic Index of food items), that is whether glucose was released slowly or i quickly into the blood stream. The meals were composed as followed (% of total energy): • High GL meal: Cornflakes+milk (35.3%), yoghurt+fruit preparation (14.2%), glucose (50.5%). • Low GL meal: Cornflakes+milk (35.3%), yoghurt+fruit preparation (14.2%), isomaltulose (50.5%).
The paradigm of Shakow was used to assess attention with error rate as outcome (Shakow, Arch general Psychiat, 1962, 6, 1-17). […]

[3] = after ingestion of 50 g; cited from earlier work
healthy school children [4] = test: Episodic memory test (Recall of Objects, British Ability Scales) after isomaltulose or glucose sweetened meal; format: in vivo, human
Method: as §1, §2, §3
The approach was based on the Recall of Objects test of the British Ability Scales (Elliott, British Ability Scales, 1996, National foundation of Educational Research) and children had to recall up to 60 objects.

healthy adults = conditions: milk-based drink; cited from earlier work

Compound	cognitive performance tests versus sucrose-containing drinks (subjects)	glycemic index (GI) [1]	attention error rate, isomaltulose meal versus glucose meal (healthy school children [2]; early postprandial phase)	attention performance (error rate), isomaltulose meal versus glucose meal (healthy school children [2]; late postprandial phase, >150 minutes after meal ingestion)	blood glucose or glycemic response curve versus sucrose [3]	time after ingestion at which blood glucose approximates the initial levels [3]	episodic memory, isomaltulose meal versus glucose meal (healthy school children [4]; early postprandial phase (early cognitive test block))	episodic memory, isomaltulose meal versus glucose meal (healthy school children [4]; late postprandial phase, >150 minutes after meal consumption)	episodic memory, late postprandial phase compared to early postprandial phase (healthy school children [4]; within the same meal)	effect on cognitive performance (healthy adults)
OC[C@H]1O[C@H](OC[C@H]2OC(O)(CO)[C@@H](O)[C@@H]2O)[C@H](O)[C@@H](O)[C@@H]1O (some centres unmarked) [isomaltulose]	performed significantly better	32	nearly the same attention error rate; also recorded: nearly the same error rates	performed better by tendency; also recorded: trend for better attention performance	much lower	about 2.5 hours	did not differ	significantly better episodic memories	not significantly different	does not affect cognitive performance
OC[C@H]1O[C@@](CO)(O[C@H]2O[C@H](CO)[C@@H](O)[C@H](O)[C@H]2O)[C@@H](O)[C@@H]1O [sucrose, reference compound]		65								
